The record followed here is paper PMC6952396, “Structural basis for itraconazole-mediated NPC1 inhibition” (Nature Communications, 2020).

Structures are written as SMILES. pIC50: −log10 of the molar value. Like-named read-outs stand apart in the source and are kept apart here.

The target in the test is T1, NPC1 (Cricetulus griseus, UniProt Q9JLG3).
T1 construct: CHO-7 cells in the medium are deprived of cholesterol to induce the LDL receptors biosynthesis; endogenous in cells; host or cells: CHO-7 cells
T1 sequence (Q9JLG3 23-1277): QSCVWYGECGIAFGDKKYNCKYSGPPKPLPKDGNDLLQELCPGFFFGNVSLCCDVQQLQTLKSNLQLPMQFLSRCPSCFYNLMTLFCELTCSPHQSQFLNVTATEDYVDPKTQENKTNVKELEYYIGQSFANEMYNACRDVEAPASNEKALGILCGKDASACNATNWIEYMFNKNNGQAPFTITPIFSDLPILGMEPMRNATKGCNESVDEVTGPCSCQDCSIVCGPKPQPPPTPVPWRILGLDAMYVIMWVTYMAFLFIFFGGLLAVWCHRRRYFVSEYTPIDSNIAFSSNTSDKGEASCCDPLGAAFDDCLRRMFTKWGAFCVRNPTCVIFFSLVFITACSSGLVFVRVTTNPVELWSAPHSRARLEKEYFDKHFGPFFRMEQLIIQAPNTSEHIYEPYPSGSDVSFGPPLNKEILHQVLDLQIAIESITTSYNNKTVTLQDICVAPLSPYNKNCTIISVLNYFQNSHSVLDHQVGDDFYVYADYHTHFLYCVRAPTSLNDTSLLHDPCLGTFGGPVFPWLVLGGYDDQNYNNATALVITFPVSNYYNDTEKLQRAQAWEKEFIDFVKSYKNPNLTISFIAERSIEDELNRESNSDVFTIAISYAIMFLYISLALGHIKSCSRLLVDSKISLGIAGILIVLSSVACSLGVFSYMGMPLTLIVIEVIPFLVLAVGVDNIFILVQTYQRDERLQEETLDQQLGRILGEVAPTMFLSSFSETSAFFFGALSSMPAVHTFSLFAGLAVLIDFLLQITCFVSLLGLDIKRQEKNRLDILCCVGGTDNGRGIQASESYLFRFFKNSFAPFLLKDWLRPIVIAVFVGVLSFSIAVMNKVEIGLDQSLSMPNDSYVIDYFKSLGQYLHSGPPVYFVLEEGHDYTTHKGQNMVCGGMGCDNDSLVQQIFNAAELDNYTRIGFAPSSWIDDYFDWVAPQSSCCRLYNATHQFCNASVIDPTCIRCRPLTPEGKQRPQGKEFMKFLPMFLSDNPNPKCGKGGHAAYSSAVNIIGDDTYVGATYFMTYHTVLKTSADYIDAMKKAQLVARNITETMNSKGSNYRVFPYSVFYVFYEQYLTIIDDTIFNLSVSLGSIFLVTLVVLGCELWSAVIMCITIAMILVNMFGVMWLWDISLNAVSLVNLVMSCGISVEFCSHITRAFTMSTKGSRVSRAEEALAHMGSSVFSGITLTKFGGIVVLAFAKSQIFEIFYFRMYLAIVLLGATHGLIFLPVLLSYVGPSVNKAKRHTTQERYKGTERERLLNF
The test is described as follows: Cholesterol re-esterification (ACAT) assay measuring NPC1-mediated export of cholesterol from lysosomes in CHO-7 cells. In kind it is cell-based. The conditions noted are these: for cholesteryl [14C] oleate formed, Repeat 1 / cholesteryl [14C] oleate formed, Repeat 2: Fig. 2 source data; for cholesteryl [14C] oleate formed, Repeat 3 / cholesteryl [14C] oleate formed, Repeat 4: Supplementary Fig. 3 source data. The source says: Itraconazole has three chiral centers (Supplementary Fig. 2a). The pharmaceutical form contains four cis-stereoisomers in a 1:1:1:1 molar ratio (Supplementary Fig. 2a–d). To determine the activity of the cis-stereoisomers, the individual isomers were isolated and identified based on their optical rotation in chloroform following a previous report (Supplementary Fig. 2e)[26]. Then, they were separately tested in a cholesterol re-esterification assay used to measure NPC1-mediated export of cholesterol from lysosomes. Briefly, CHO-7 cells in the medium are deprived of cholesterol to induce the LDL receptors biosynthesis. The cells are then incubated with fetal calf serum (FCS) that contains LDL. The LDL-derived cholesterol will now be transported by functional NPC1 protein from the lysosome to the endoplasmic reticulum (ER). The acyl-CoA:cholesterol actyltransferase named ACAT can now re-esterify the cholesterol in the ER. Therefore, the cells were pulse-labeled with [^14C] oleate and we can measure the synthesis of cholesteroyl [^14C] oleate to evaluate the activity of NPC1 protein. Using this assay, we tested the ability of various itraconazole to inhibit NPC1 activity.
Fig. 2 ACAT activity of itraconazole and ketoconazole in CHO-7 cells. On day 0, CHO-7 cells were set up in medium A with 5% LPDS at 2.5 × 10^5 cells/well in 6-well dish. On day 2, cells were switched to medium A with 5% LPDS containing 50 µM sodium compactin and 50 µM sodium mevalonate. On day 3 the cells received fresh medium B containing compactin and mevalonate with various concentration compounds in the presence of 10% FCS containing lipoproteins. After incubation for 4 h at 37 °C, each cell monolayer was pulse-labeled for 2 h with 0.1 mM sodium [^14C] oleate (5792 dpm/nmol). The cells were then harvested for measurement of their content of cholesteryl [^14C] oleate and [^14C] triglycerides, as described in Methods. […] Itraconazole mixture, isomer A (Supplementary Fig. 2a), isomer B (Supplementary Fig. 2b) and isomer C (Supplementary Fig. 2c) were added at final concentrations of 0.3 μM. The isomer D (Supplementary Fig. 2d), I-Br and ketoconazole were added at final concentrations of 1 μM. The biological repeats are shown as individual values. Source data are provided as a Source Data file.
On day 0, cells were set up in medium A with 5% LPDS at 2.5 × 10^5 cells/well in six-well dish. On day 2, cells were switched to medium A with 5% LPDS containing 50 µM sodium compactin and 50 µM sodium mevalonate. On day 3 the cells received fresh medium B containing compactin and mevalonate with indicated concentration triazole compounds in the presence of 10% FCS containing lipoproteins. After incubation for 4 h at 37 °C, each cell monolayer was pulse-labeled for 2 h with 0.1 mM sodium [^14C] oleate (5792 dpm/nmol). The cells were then harvested for measurement of their content of cholesteryl [^14C] oleate and [^14C] triglycerides.
The rate of incorporation of [^14C] oleate into cholesteryl [^14C] oleate and [^14C] triglycerides by monolayers of NPC1^−/− cells and CHO-7 cells was measured as described previously. In brief, cells were switched to medium containing LPDS supplemented with compactin and mevolonate at 16 h before the experiments. On the day of the experiment, cells were incubated for 4 h with fresh medium containing FCS as a source of cholesterol-containing lipoproteins. Cells were then pulse –labeled for 2 h with 0.1 mM sodium [^14C] oleate. Cells were then washed, and the lipids were extracted in hexane:isopropanol (3:2, vol:vol), separated on a silica gel G thin-layer chromatogram (developed in heptane:ethylether:acetic acid, 90:30:1), and quantified by scintillation counting with the use of an internal standard for recovery.

As to `CCC(C)n1ncn(-c2ccc(N3CCN(c4ccc(OCC5COC(Cn6cncn6)(c6ccc(Cl)cc6Cl)O5)cc4)CC3)cc2)c1=O` (stereo not shown) [Itra-C], the “cholesteryl [14C] oleate formed, Repeat 1” value is given as 2.751 nanomoles formed per hour per milligram cell protein (0.01 uM compound); 3.794 nanomoles formed per hour per milligram cell protein (0.03 uM compound); 2.064 nanomoles formed per hour per milligram cell protein (0.06 uM compound); 1.063 nanomoles formed per hour per milligram cell protein (0.1 uM compound); 0.4254 nanomoles formed per hour per milligram cell protein (0.3 uM compound). In addition, the “cholesteryl [14C] oleate formed, Repeat 2” value reads like this: (0.01 uM compound) 4.364 nanomoles formed per hour per milligram cell protein; (0.03 uM compound) 3.288 nanomoles formed per hour per milligram cell protein; (0.06 uM compound) 2.2038 nanomoles formed per hour per milligram cell protein; (0.1 uM compound) 0.9711 nanomoles formed per hour per milligram cell protein; (0.3 uM compound) 0.7413 nanomoles formed per hour per milligram cell protein. The “cholesteryl [14C] oleate formed, Repeat 3” value is on record as 5.964 nanomoles formed per hour per milligram cell protein (0.01 uM compound); 5.048 nanomoles formed per hour per milligram cell protein (0.03 uM compound); 2.593 nanomoles formed per hour per milligram cell protein (0.06 uM compound); 0.7465 nanomoles formed per hour per milligram cell protein (0.1 uM compound); 0.1456 nanomoles formed per hour per milligram cell protein (0.3 uM compound). The “cholesteryl [14C] oleate formed, Repeat 4” value runs as follows: (0.01 uM compound) 6.001 nanomoles formed per hour per milligram cell protein; (0.03 uM compound) 4.017 nanomoles formed per hour per milligram cell protein; (0.06 uM compound) 3.086 nanomoles formed per hour per milligram cell protein; (0.1 uM compound) 0.811 nanomoles formed per hour per milligram cell protein; (0.3 uM compound) 0.04925 nanomoles formed per hour per milligram cell protein. The compound further showed a pIC50 (IC50 (concentration at which each compound inhibited cholesterol esterification by 50%), 10% FCS, 4 h then 2 h [14C] oleate pulse) of 7.46.
As for `CCC(C)n1ncn(-c2ccc(N3CCN(c4ccc(OCC5COC(Cn6cncn6)(c6ccc(Cl)cc6Cl)O5)cc4)CC3)cc2)c1=O` (stereo not shown) [Itra-D], the “cholesteryl [14C] oleate formed, Repeat 1” value by setting is: (0.01 uM compound) 5.124 nanomoles formed per hour per milligram cell protein; (0.03 uM compound) 5.201 nanomoles formed per hour per milligram cell protein; (0.06 uM compound) 4.957 nanomoles formed per hour per milligram cell protein; (0.1 uM compound) 4.223 nanomoles formed per hour per milligram cell protein; (0.3 uM compound) 1.696 nanomoles formed per hour per milligram cell protein; (1 uM compound) 0.3184 nanomoles formed per hour per milligram cell protein. For the same compound, the “cholesteryl [14C] oleate formed, Repeat 2” value was 4.829 nanomoles formed per hour per milligram cell protein (0.01 uM compound); 5.414 nanomoles formed per hour per milligram cell protein (0.03 uM compound); 4.372 nanomoles formed per hour per milligram cell protein (0.06 uM compound); 3.931 nanomoles formed per hour per milligram cell protein (0.1 uM compound); 0.8471 nanomoles formed per hour per milligram cell protein (0.3 uM compound); 0.2982 nanomoles formed per hour per milligram cell protein (1 uM compound). Further, the “cholesteryl [14C] oleate formed, Repeat 3” value by setting is: (0.01 uM compound) 5.364 nanomoles formed per hour per milligram cell protein; (0.03 uM compound) 4.815 nanomoles formed per hour per milligram cell protein; (0.06 uM compound) 4.6935 nanomoles formed per hour per milligram cell protein; (0.1 uM compound) 3.618 nanomoles formed per hour per milligram cell protein; (0.3 uM compound) 0.9245 nanomoles formed per hour per milligram cell protein; (1 uM compound) 0.3042 nanomoles formed per hour per milligram cell protein. Moreover, the “cholesteryl [14C] oleate formed, Repeat 4” value is, setting by setting: (0.01 uM compound) 5.55 nanomoles formed per hour per milligram cell protein; (0.03 uM compound) 5.633 nanomoles formed per hour per milligram cell protein; (0.06 uM compound) 4.899 nanomoles formed per hour per milligram cell protein; (0.1 uM compound) 3.755 nanomoles formed per hour per milligram cell protein; (0.3 uM compound) 0.77 nanomoles formed per hour per milligram cell protein; (1 uM compound) 0.4741 nanomoles formed per hour per milligram cell protein. Besides, the pIC50 (read-out: IC50 (concentration at which each compound inhibited cholesterol esterification by 50%), 10% FCS, 4 h then 2 h [14C] oleate pulse) is 6.76.
